The test system of the test is P-388 murine leukemia. Put plainly: Activity against P-388 murine leukemia (P-388 screen, survival of tumor-implanted mice). To be noted: for minimal effective dose: Mus musculus, P388, ip; for activity against P-388 leukemia (in words): in vivo P-388 leukemia, compared to concurrently run mitomycin C controls. The class given is in vivo, CDF₁ female mice. As for the experimental part: The Table contains the results of laboratory tests with CDF₁ female mice implanted intraperitoneally with a tumor inoculum of 10⁶ ascites cells of P-388 murine leukemia and treated with various doses of either a test compound of this invention, or with mitomycin C. The compounds were administered by intraperitoneal injection. Groups of six mice were used for each dosage amount and they were treated with a single dose of the compound on the day of inoculation. A group of ten saline treated control mice was included in each series of experiments. The mitomycin C treated groups were included as a positive control. A 30-day protocol was employed with the mean survival time in days being determined for each group of mice and the number of survivors at the end of the 30-day period being noted.
The results were determined in terms of % T/C which is the ration of the mean survival time of the treated group to the mean survival time of the saline treated control group times 100. The saline treated control animals usually died within nine days. The "maximum effect" in the following Table is expressed as % T/C and the dose giving that effect is given in parentheses. The values in brackets are the values obtained with mitomycin C as the positive control in the same experiment. Thus, a measure of the relative activity of the present substances to mitomycin C can be estimated. A minimum effect in terms of % T/C was considered to be 125. The minimum effective dose (MED) reported in the following Table is that dose given a % T/C of approximately 125 or greater.

Setting [1] is: read-out: MED (minimum effective dose, %T/C≧125), P-388 leukemia ip, single ip dose on the day of inoculation, mitomycin C value in brackets from the same experiment.

“And” between values parts separate entries of the source, which are not always exact repeats. Equal values may be shown once. Read-outs that look alike come from different tables or passages of the source.

In the case of `CO[C@@]12[C@H](COC(N)=O)C3=C(C(O)=C(C)C(=NNC(=O)c4cccnc4)C3=O)N1C[C@@H]1N[C@@H]12` [III, 3-Pyridinecarboxylic acid, [1aS-(1aα, 8β, 8aα, 8bα)]-[8-[[(aminocarbonyl)-oxy]methyl]-1,1a,2,8,8a,8b-hexahydro-4-hydroxy-8a-methoxy-5-methyl-7-oxoazirino[2′,3′;3,4,]pyrrolo[1,2-a]indol-6(7H)-ylidene]hydrazide], the “activity against P-388 leukemia (in words)” value is “moderately active”. Besides, under setting [1], the minimal effective dose came out at 12.8 mg/kg.
In the case of `CO[C@@]12[C@H](COC(N)=O)C3=C(C(O)=C(C)C(=NNC(=O)OCC4c5ccccc5-c5ccccc54)C3=O)N1C[C@@H]1N[C@@H]12` [VIII, 9′-Fluorenylmethyl[1aS-(1aα, 8β, 8aα, 8bα)]-[8-[[(aminocarbonyl)oxy]-methyl]-1,1a, 2,8,8a, 8b-hexahydro-4-hydroxy-8a-methoxy-5-methyl-7-oxoazirino[2′, 3′;3,4,]pyrrolo[1,2-a]indol-6(7H)-ylidene]hydrazine carboxylate], the “activity against P-388 leukemia (in words)” value is listed as “highest efficacy”. In addition, the minimal effective dose under setting [1] came to 0.8 mg/kg.
Take `CO[C@@]12[C@H](COC(N)=O)C3=C(C(O)=C(C)C(=NNC(=O)OC(C)(C)C)C3=O)N1C[C@@H]1N[C@@H]12` [VI]: under setting [1], the minimal effective dose turned out to be 0.8 mg/kg.
`CO[C@@]12[C@H](COC(N)=O)C3=C(C(O)=C(C)C(=NNC(=O)OCc4ccccc4)C3=O)N1C[C@@H]1N[C@@H]12` [VII, Phenylmethyl [1aS-(1aα, 8β, 8aα, 8bα)]-[8-[[(aminocarbonyl)-oxy]methyl]-1,1a, 2,8,8a, 8b-hexahydro-4-hydroxy-8a-methoxy-5-methyl-7-oxoazirino[2′, 3′; 3, 4]pyrrolo[1,2-a]indol-6(7H)-ylidene] hydrazinecarboxylate]: the “activity against P-388 leukemia (in words)” value was “highest efficacy”. In addition, the minimal effective dose under setting [1] stood at 1.6 mg/kg.
Take `CO[C@@]12[C@H](COC(N)=O)C3=C(C(=O)C(C)=C(N)C3=O)N1C[C@@H]1N[C@@H]12` [mitomycin C, 7-amino-9α-methoxymitosane, reference compound]: the minimal effective dose (P-388 leukemia ip, single ip dose on the day of inoculation, mitomycin C value in brackets from the same experiment, read-out: MED (minimum effective dose, %T/C≧125)) was 1.6 mg/kg. Further, the “MED (minimum effective dose, %T/C≧125)” value (P-388 leukemia ip, single ip dose on the day of inoculation, mitomycin C value in brackets from the same experiment) is 1.6[1.6] mg/kg per dose and 0.8[0.8] mg/kg per dose.
For `CCOC(=O)NN=C1C(=O)C2=C(C(O)=C1C)N1C[C@@H]3N[C@@H]3[C@]1(OC)[C@@H]2COC(N)=O` [V, Ethyl [1aS-(1aα, 8β, 8aα, 8bα)]-[8-[[(aminocarbonyl)oxy]methyl]-1,1a,2,8,8a,8b-hexahydro-4-hydroxy-8a-methoxy-5-methyl-7-oxoazirino[2′,3′,3,4]pyrrolo[1,2-a]indol-6(7H)-ylidene]hydrazinecarboxylate], the “activity against P-388 leukemia (in words)” value is “highest efficacy”. Further, under setting [1], the minimal effective dose was 0.8 mg/kg.
For `CO[C@@]12[C@H](COC(N)=O)C3=C(C(O)=C(C)C(=NNC(C)=O)C3=O)N1C[C@@H]1N[C@@H]12` [I, Acetic acid, [1aS-(1aα, 8β, 8aα, 8bα)]-[8-[[(aminocarbonyl)oxy]methyl]-1,1a,2,8,8a,8b-hexahydro-4-hydroxy-8a-methoxy-5-methyl-7-oxoazirino [2′,3′;3,4]pyrrolo[1,2-a]indol-6(7H)-ylidene]hydrazide] the same measures were “pronounced activity” and 1.6 mg/kg.
As for `CO[C@@]12[C@H](COC(N)=O)C3=C(C(O)=C(C)C(=NNC(=O)c4cccs4)C3=O)N1C[C@@H]1N[C@@H]12` [IV], the “activity against P-388 leukemia (in words)” value was “moderately active”. Under setting [1], the minimal effective dose came out at 0.8 mg/kg.
Regarding `CO[C@@]12[C@H](COC(N)=O)C3=C(C(O)=C(C)C(=NNC(=O)c4ccccc4)C3=O)N1C[C@@H]1N[C@@H]12` [II, Benzoic acid, [1aS-(1aα, 8β, 8aα, 8bα)]-[8-[[(aminocarbonyl)-oxy]methyl]-1,1a,2,8,8a,8b-hexahydro-4-hydroxy-8a-methoxy-5-methyl-7-oxoazirino[2′,3′,4]pyrrolo[1,2-a]indol-6(7H)-ylidene]hydrazide], the “activity against P-388 leukemia (in words)” value is “moderately active”. Moreover, under setting [1], the minimal effective dose stood at 0.8 mg/kg.

For the origin of these results see patent EP0328121A1, “Substituted hydrazine mitomycin analogs” (priority 1988, dated 1989).
